Experimental findings from ChEMBL document CHEMBL2074405, “Transport of monoamine transmitters by the organic cation transporter type 2, OCT2” (J Biol Chem, 1998) are described below.

In series [1] the target is T1, Solute carrier family 22 member 2 (Rattus norvegicus, UniProt Q9R0W2).
T1 sequence (Q9R0W2 whole entry): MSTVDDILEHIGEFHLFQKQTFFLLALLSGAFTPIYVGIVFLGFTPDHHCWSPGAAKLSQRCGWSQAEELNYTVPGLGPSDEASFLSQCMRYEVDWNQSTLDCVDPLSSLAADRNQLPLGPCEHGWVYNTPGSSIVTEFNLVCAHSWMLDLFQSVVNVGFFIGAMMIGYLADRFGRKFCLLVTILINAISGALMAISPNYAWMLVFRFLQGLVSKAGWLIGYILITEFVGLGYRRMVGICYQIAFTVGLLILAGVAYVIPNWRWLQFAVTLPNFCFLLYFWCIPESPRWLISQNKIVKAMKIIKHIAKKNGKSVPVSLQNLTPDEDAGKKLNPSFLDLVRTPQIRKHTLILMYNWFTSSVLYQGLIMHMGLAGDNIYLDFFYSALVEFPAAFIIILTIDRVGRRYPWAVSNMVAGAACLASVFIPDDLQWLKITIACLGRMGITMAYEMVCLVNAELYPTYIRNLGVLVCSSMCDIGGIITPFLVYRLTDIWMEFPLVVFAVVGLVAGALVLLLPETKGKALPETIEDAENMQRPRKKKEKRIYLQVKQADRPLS
Description: TP_TRANSPORTER: inhibition of Dopamine uptake in OCT2-expressing HEK293 cells. The series is classed as functional, cell-based.

For series [2], the target named is T1, Solute carrier family 22 member 2. Description: TP_TRANSPORTER: inhibition of Adrenaline uptake in OCT2-expressing HEK293 cells. The series is classed as functional, cell-based.
Series [3] shares this target. Description: TP_TRANSPORTER: inhibition of Noradrenaline uptake in OCT2-expressing HEK293 cells. Format: functional, cell-based.
The target is the same in series [4]. Description: TP_TRANSPORTER: inhibition of Serotonin uptake in OCT2-expressing HEK293 cells. The series is classed as functional, cell-based.
The target is the same in series [5]. The series is described as follows: TP_TRANSPORTER: inhibition of Dopamine uptake (Dopamine: 0.1 uM, O-Methylisoprenaline: 30 uM) in OCT2-expressing HEK293 cells. Format: functional, cell-based. The note with it: human, hek293, 30 µM.
Series [6] shares this target. Description: TP_TRANSPORTER: inhibition of Dopamine uptake (Dopamine: 0.1 uM, Cocaine: 1 uM) in OCT2-expressing HEK293 cells. As to conditions: human, hek293, 1 µM. The series is classed as functional, cell-based.
Substrate in series [7]: NCCc1ccc(O)c(O)c1
Description: cells, lysate or membranes named.

Substrate in series [8]: CNC[C@H](O)c1ccc(O)c(O)c1
Description: cells, lysate or membranes named.

Substrate in series [9]: NC[C@H](O)c1ccc(O)c(O)c1
Description: cells, lysate or membranes named.

Substrate in series [10]: NCCc1c[nH]c2ccc(O)cc12
The series is described as follows: cells, lysate or membranes named.

“And” between values parts separate entries of the source, which are not always exact repeats. Equal values may be shown once.

As usually defined, the Ki is a measure of affinity in units of concentration, obtained from inhibition or displacement. The low end stands for higher affinity, the high end for lower affinity. As for `CC(C)N1/C(=C\c2cc[n+](C(C)C)c3ccccc23)C=Cc2ccccc21` [DISPROCYNIUM24], the Ki is 5.1 nM in series [1], 12 nM in series [2], 13 nM in [3] and 13 nM in [4].

In the case of `COc1cc(C(O)CNC(C)C)ccc1O` (centres undefined) [METIPRENALINE], the Activity result in [5] is “is not an inhibitor [-]”.

As for `COC(=O)[C@H]1[C@@H](OC(=O)c2ccccc2)C[C@@H]2CC[C@H]1N2C` [COCAINE], in series [6], the Activity result is “is not an inhibitor [-]”.

Regarding `C[C@]12C[C@H](O)[C@H]3[C@@H](CCC4=CC(=O)CC[C@@]43C)[C@@H]1CC[C@@H]2C(=O)CO` [CORTICOSTERONE], the Ki in series [1] amounted to 390 nM; in series [2] it was 420 nM; in series [3], 460 nM; in [4] it was 605 nM.

B1: Solute carrier family 22 member 2 (Rattus norvegicus) (protein)
chain: T1 sequence (Q9R0W2 whole entry)
The Km is the substrate concentration at which the rate is half of its maximum. For the molecule B1, the Km in [7] is 2.1 mM; in [8], 1.9 mM; in series [9] it was 11 mM and 4.4 mM; in series [10], 3.6 mM.
